Assay results published in US20030211941A1, “Methods for identifying signalling molecules” (priority 2002, published 2003).
Non-standard residues stand in square brackets, D forms with d. Hyp = O=C(O)[C@@H]1C[C@@H](O)CN1

Columns and labels:
[1] = system: tobacco suspension cell cultures; test: Alkalinization assay (tobacco cell suspension cultures); type: cell-based, N. tabacum; settings: for EC50: 2 ml tobacco suspension cells, read-out: Concentrations for 1/2 maximal activity in Alkalinization Assays (Tobacco Cell Suspension Cultures); for Alkalinization of tobacco suspension cell cultures (in words): tobacco suspension cells
Method: Column fractions were assayed using suspension-cultured tobacco cells as follows. An aliquot of cells (usually 1 to 2 ml) were placed in the wells of culture plates, then aliquots from each column fraction (1 to 10 μL) were placed in each well of the culture plates. The cells in the plates were agitated by a circular motion of the rotary shaker on which they sat. The pH was then monitored over time and the change in pH at various times was plotted versus fraction number.
The two active peaks were solubilized in 1 ml 0.1% TFA each and injected into a narrow bore reversed-phase C18 column (Vydac, Column 218TP52, 2.1 by 250 mm, 5 μm beads, 300 angstrom pores). Solvent A consisted of 0.1% TFA in water, and solvent B was 0.05% TFA in methanol. Samples were injected in solvent A, and after 2 minutes, a 90 minute gradient from 0% solvent B to 30% solvent B was applied. The flow rate was 0.25 ml/min and the fractions (0.25 ml) were monitored at 214 nm and 2 μl were assayed for their alkalinization activity in tobacco cell cultures. The elution and alkalinization profiles for peak I activity are shown in FIG. 3A and FIG. 3B, respectively. The elution and alkalinization profile for peak II activity are shown in FIG. 4A and FIG. 4B, respectively.
The cells can be maintained in 125 mL Ehrlenmeyer flasks on an orbital shaker (160 rpm) under constant light. Three milliliters of cells are subcultured every seven days into 45 mL of sterile media (unbuffered, pH 5.5 adjusted with 0.1 M KOH) containing 3% sucrose, 4.3 g/L Murashige and Skoog salt mixture, 5 mg/L 1-napthylacetic acid, 2 mg/L 6-benzylaminopurine, 110 mg/L Nitsch and Nitsch vitamin powder, 1 mg/L thiamine, 100 mg/L myo-inositol and 1 mM EDTA. Cells can be used for alkalinization assays from 4 to 8 days after subculturing.

[2] = system: tobacco proteinase inhibitor protein; test: Proteinase inhibitor inducing assay (tobacco leaves; supplied to young tobacco plants through cut stems); type: in vivo; settings: for Induction of tobacco proteinase inhibitor protein (in words): tobacco plants; for Concentrations for 1/2 maximal activity in Proteinase Inhibitor Inducing Assays (Tobacco Leaves): young tobacco plants, supplied through cut stems
Method: The purified polypeptides were sequenced and named tobacco systemin I (peak I activity) (SEQ ID NO: 1) and tobacco systemin II (peak II activity) (SEQ ID NO: 2). Both are polypeptides of 18 amino acids and both are glycosylated. Using mild acid hydrolysis, the carbohydrates were removed, and the masses of both tobacco systemin I (SEQ ID NO: 1) and tobacco systemin II (SEQ ID NO: 2) were analyzed before and after acid hydrolysis using a MALDI-MS. The amino acid sequence of tobacco systemin I is NH2-RGANLPXXSXASSXXSKE-COO. (SEQ ID NO:1). The amino acid sequence of tobacco systemin II is NH2-NRKPLSXXSXKPADGQRP-COO (SEQ ID NO:2). The one letter abbreviation “X” represents hydroxyproline. The masses after acid hydrolysis exactly matched the masses obtained by sequence analysis. […] The potency of the tobacco systemins was similar to that found for tomato systemin (disclosed in U.S. Pat. No. 5,378,819) in its alkalinization response in tomato cell suspension cultures and in inducing proteinase inhibitors in leaves of excised tomato plants (Table 1).

[3] = system: MAP kinase protein; test: MAP kinase assay in tobacco leaf extracts; type: biochemical
Source text: The ability of tobacco systemin I (SEQ ID NO: 1), tobacco systemin II (SEQ ID NO: 2) and the 5 kDa polypeptide, described in Example 2 herein, to stimulate the phosphorylation of a MAP kinase protein in tobacco leaf extracts was investigated. The MAP kinase assay utilized was essentially as described in Stratmann, J. W. and Ryan, C. A., Proc. Nat'l. Acad. Sci. U.S.A. 94:11085-11089 (1997), which publication is incorporated herein by reference.

Row | Substance | EC50 [1] [nM] | Alkalinization of tobacco suspension cell cultures (in words) [1] | Induction of tobacco proteinase inhibitor protein (in words) [2] | Concentrations for 1/2 maximal activity in Proteinase Inhibitor Inducing Assays (Tobacco Leaves) [2] | MAP kinase stimulating activity (in words) [3]
1 | 18 amino acid glycosylated polypeptide from tobacco, NH2-RGANLPXXSXASSXXSKE-COO (X = hydroxyproline), 9 pentose units (H-RGANLP[Hyp][Hyp]S[Hyp]ASS[Hyp][Hyp]SKE-OH; also: 9 pentose units glycosylation, places not given here) [Tob Sys I, tobacco systemin I] | ~0.25 | active at low picomole levels | active at low picomole levels | ˜200 fmol/plant | –
2 | 18 amino acid glycosylated polypeptide from tobacco, NH2-NRKPLSXXSXKPADGQRP-COO (X = hydroxyproline), 6 pentose units (H-NRKPLS[Hyp][Hyp]S[Hyp]KPADGQRP-OH; also: 6 pentose units glycosylation, places not given here) [Tob Sys II, tobacco systemin II] | ~0.25 | active at low picomole levels | active at low picomole levels | ˜200 fmol/plant | possess MAP kinase stimulating activity
3 | tomato systemin (AVQSKPPSKRDPPKMQTD; Systemin; UniProt P27058 179-196, looked up) [tomato systemin disclosed in U.S. Pat. No. 5,378,819, reference compound] | – | does not cause alkalinization | – | – | –
